Patent US9345696B2, “Methods for treating nicotinic acetylcholine receptor associated diseases” (priority 2010, dated 2016)

Tests used:
[1] = tested on: binocular zone of V1 of Lynx1 knockout and wild-type mice; assay: Ocular dominance plasticity after short-term monocular deprivation, extracellular recording in vivo (contralateral bias index); design: species or system mouse; details: for effect on adult ocular dominance plasticity in Lynx1 knockout mice (in words): concurrent with short-term MD
Experimental: (§1) Eyelid margins were trimmed by iris scissor and eyes sutured shut under isoflurane anesthesia. Eyes were closed 4-5 days for short term MD (STMD), from P19 to >P60 for long term MD (CP-LTMD), and from P19 to P33 for recovery studies.
Electrophysiological recording was performed under nembutal/chlorprothixene anesthesia using standard techniques for mice (T. K. Hensch et al., Science 282: 1504 (1998); J. A. Gordon, M. P. Stryker, J Neurosci 16: 3274 (1996). Ocular dominance in the binocular zone of each mouse was calculated as a contralateral bias index (CBI): [(n1−n7)+2/3(n2−n6)+⅓(n3−n5)+N]/2N, where N=total number of cells and nx=number of cells corresponding to ocular dominance score of x (J. A. Gordon, M. P. Stryker, J Neurosci 16, 3274 (1996)). For statistical comparison of OD distributions, normalized OD scores of single neurons were plotted as cumulative distribution for each experimental group. OD score was computed by PSTH analysis of peak to baseline spiking activity in response to each eye: {[Peak(ipsi)−baseline(ipsi)]−[Peak(contra)-baseline(contra)]}/{[Peak(ipsi)-baseline(ipsi)]+[Peak(contra)-baseline(contra)]}(T. Pizzorusso et al., Science, 298: 1248 (2002)).

V1 of wild-type mice = assay: Recovery from amblyopia: visual acuity by visual evoked potentials in V1 after long-term MD and eye reopening; assay type: in vivo, mouse; details: WT mice
Text: as §1

Row | Structure (SMILES) | contralateral bias index (CBI) ([1]; adult Lynx1 KO mice, adult MD, focal infusion into V1 by osmotic minipump) | effect on adult ocular dominance plasticity in Lynx1 knockout mice (in words) ([1]; adult Lynx1 KO mice) | contralateral bias index (CBI) ([1]; adult Lynx1 KO mice, no MD, with mecamylamine) | contralateral bias index (CBI) ([1]; adult Lynx1 KO mice, short-term MD with concurrent nAChR antagonist (systemic i.p. daily or cortical minipump infusion)) | contralateral bias index (CBI) ([1]; adult WT mice, short-term MD with concurrent mecamylamine) | Visual acuity (VEP) (V1 of wild-type mice; LTMD P19 to P33, deprived eye reopened, 0.1 mg/kg i.p. daily from P45, recorded >P60) [cyc/deg] | Visual acuity (VEP) (V1 of wild-type mice; no MD, with AChEI) [cyc/deg]
1 | CN1C(=O)CN=C(c2ccccc2)c2cc(Cl)ccc21 [Diazepam] | 0.67 | abolished adult plasticity | – | – | – | – | –
2 | CNC1(C)C2CCC(C2)C1(C)C (centres unmarked) [mecamylamine] | – | sufficient to prevent adult plasticity | 0.68 | 0.68 | 0.69 | – | –
3 | CNC(=O)Oc1ccc2c(c1)[C@]1(C)CCN(C)[C@@H]1N2C [physostigmine] | – | – | – | – | – | 0.48±0.06 | 0.47±0.02
